Reference: PMC10280969, “A green leaf volatile, (Z)-3-hexenyl-acetate, mediates differential oviposition by Spodoptera frugiperda on maize and rice” (BMC Biology, 2023)

Experiments:
Assay in all cases: two-electrode voltage clamp, Xenopus oocytes
Type in all cases: cell-based
Details in all cases: 10^-4 M odorant; Ca2+-free Ringer buffer pH 7.6; agonist
SfruOR9 = target: T1, SfruOR9 (Spodoptera frugiperda, UniProt A0A9R0EEX7)
T1 construct: gene LOC118261888; full-length ORF, pT7TS cRNA, Xenopus laevis oocytes; with Odorant receptor coreceptor
T1 sequence (A0A9R0EEX7 1-400): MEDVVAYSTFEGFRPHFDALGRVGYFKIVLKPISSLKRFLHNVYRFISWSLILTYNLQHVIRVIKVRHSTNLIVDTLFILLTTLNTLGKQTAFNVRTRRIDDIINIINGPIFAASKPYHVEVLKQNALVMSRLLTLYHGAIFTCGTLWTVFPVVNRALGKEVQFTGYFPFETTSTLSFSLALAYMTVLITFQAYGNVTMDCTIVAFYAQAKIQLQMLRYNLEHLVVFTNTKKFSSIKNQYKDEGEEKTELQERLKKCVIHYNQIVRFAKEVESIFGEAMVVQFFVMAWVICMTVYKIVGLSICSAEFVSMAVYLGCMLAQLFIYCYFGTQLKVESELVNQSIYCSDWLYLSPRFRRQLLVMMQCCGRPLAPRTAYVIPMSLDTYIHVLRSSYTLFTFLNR
T1 sequence (A0A9F1UC78 1-473 partner): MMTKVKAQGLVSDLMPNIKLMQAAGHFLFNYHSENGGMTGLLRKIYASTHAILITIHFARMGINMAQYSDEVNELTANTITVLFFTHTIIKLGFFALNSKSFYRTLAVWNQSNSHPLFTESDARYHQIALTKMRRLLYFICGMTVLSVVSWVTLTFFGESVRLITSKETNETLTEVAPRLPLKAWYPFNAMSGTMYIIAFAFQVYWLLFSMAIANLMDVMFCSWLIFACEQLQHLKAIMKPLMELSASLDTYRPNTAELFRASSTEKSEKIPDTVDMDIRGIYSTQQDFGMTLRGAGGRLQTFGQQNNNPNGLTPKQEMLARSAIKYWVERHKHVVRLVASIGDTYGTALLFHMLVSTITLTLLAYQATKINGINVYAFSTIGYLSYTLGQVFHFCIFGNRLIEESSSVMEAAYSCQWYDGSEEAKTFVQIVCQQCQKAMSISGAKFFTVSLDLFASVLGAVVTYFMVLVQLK

SfruOR5 = target: T2, SfruOR5 (Spodoptera frugiperda, UniProt A0A9R0ELQ8)
T2 construct: gene LOC118270580; full-length ORF, pT7TS cRNA, Xenopus laevis oocytes; with Odorant receptor coreceptor
T2 sequence (A0A9R0ELQ8 1-379): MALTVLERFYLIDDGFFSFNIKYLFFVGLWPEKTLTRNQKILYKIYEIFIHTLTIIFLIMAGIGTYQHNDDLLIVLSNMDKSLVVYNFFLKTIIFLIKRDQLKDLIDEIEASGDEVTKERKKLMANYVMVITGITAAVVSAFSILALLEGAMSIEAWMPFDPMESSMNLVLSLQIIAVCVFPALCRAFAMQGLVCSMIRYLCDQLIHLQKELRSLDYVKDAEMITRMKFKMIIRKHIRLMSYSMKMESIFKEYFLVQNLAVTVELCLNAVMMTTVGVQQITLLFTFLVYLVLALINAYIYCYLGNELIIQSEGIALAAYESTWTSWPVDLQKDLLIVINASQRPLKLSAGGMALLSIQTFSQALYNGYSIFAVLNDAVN
T2 sequence (A0A9F1UC78 1-473 partner): T1 sequence (A0A9F1UC78 1-473 partner)

SfruOR23/ORco = target: T3, SfruOR23/ORco (Spodoptera frugiperda, UniProt A0A9R0EA99)
T3 construct: gene LOC118268273; full-length ORF, pT7TS cRNA, Xenopus laevis oocytes, with ORco; with Odorant receptor coreceptor
T3 sequence (A0A9R0EA99 1-429): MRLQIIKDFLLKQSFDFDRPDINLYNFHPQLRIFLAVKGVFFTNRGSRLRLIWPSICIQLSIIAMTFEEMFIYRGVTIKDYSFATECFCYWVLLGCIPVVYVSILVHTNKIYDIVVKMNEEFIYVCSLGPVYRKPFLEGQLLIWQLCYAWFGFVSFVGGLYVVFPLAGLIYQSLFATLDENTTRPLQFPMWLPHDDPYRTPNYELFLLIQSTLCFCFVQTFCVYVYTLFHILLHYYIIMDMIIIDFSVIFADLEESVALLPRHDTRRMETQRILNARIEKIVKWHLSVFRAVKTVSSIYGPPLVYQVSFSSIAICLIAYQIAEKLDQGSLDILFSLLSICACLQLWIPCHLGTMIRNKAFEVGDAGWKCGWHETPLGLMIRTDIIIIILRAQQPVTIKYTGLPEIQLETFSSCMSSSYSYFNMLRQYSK
T3 sequence (A0A9F1UC78 1-473 partner): T1 sequence (A0A9F1UC78 1-473 partner)

SfruOR17 = target: T4, SfruOR17 (Spodoptera frugiperda, UniProt A0A9R0D2T2)
T4 construct: gene LOC118267896; full-length ORF, pT7TS cRNA, Xenopus laevis oocytes; with Odorant receptor coreceptor
T4 sequence (A0A9R0D2T2 1-395): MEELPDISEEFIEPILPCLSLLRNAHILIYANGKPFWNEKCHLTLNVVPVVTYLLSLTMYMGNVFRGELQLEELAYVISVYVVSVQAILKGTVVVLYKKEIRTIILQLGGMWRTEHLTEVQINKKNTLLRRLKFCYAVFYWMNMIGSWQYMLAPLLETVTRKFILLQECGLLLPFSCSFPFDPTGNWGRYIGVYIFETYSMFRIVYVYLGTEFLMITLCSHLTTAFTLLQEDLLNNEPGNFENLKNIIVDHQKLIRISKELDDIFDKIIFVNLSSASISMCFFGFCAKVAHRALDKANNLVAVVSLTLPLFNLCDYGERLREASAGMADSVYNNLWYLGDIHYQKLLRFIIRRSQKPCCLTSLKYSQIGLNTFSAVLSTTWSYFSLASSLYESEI
T4 sequence (A0A9F1UC78 1-473 partner): T1 sequence (A0A9F1UC78 1-473 partner)

With `CC/C=C\CCOC(C)=O` [(Z)-3-hexenyl-acetate] the inward current response (SfruOR9) was “SfruOR5, SfruOR9, SfruOR17, SfruOR23, and SfruOR25 responded to the oviposition stimulant (Z)-3-hexenyl-acetate”, the inward current response (SfruOR5) was “SfruOR5, SfruOR9, SfruOR17, SfruOR23, and SfruOR25 responded to the oviposition stimulant (Z)-3-hexenyl-acetate” and the inward current response (SfruOR23/ORco) was “with SfruOR23/ORco showing the highest response”. The inward current response (SfruOR17) was “SfruOR5, SfruOR9, SfruOR17, SfruOR23, and SfruOR25 responded to the oviposition stimulant (Z)-3-hexenyl-acetate”.
